Laboratory results as given in article PMC7878837, “Generation of Human-Induced Pluripotent Stem Cell-Derived Functional Enterocyte-Like Cells for Pharmacokinetic Studies” (Stem Cell Reports, 2021).
Where two headings read alike, the source gives them in different places.

Legend:
[1] = tested on: RPChiPS771-derived enterocyte-like cells; assay: Real-time PCR of marker genes in hiPSC-derived enterocyte-like cells with or without VD3; format: cell-based, human
Excerpt: We then used M3-2 for maturation and evaluated the time-dependent expression of marker genes (Figure 4D). […] The expression levels of UDP glucuronosyltransferase 1-1 (UGT1A1) and various isoforms of P450 metabolizing enzymes (CYP2B6, CYP3A4, and CYP3A7) increased in the presence of VD3 compared with the controls without VD3. The expression levels of uptake transporter, SLC15A1, and efflux transporters, ABCB1 and ABCG2, were not affected by VD3.
Cells were fixed in 4% paraformaldehyde (Nacalai Tesque) in PBS, permeabilized with 0.1% Triton X-100 (Nacalai Tesque). The following antibodies were used: anti-CDX2 (1:100, BioGenex, San Ramon, CA, MU392A-UC), anti-VILLIN (1:100, BD Transduction Laboratories, San Diego, 610359), Alexa 568-conjugated, and Alexa 488-conjugated antibodies (1:1000, ThermoFisher).
RNA was extracted from iPS cells using the RNeasy micro-kit or QIAzol (Qiagen, Hilden, Germany) and then treated with DNase (Qiagen). For reverse transcription reactions, 2.5 µg RNA was reverse-transcribed using PrimeScript™ RT Master Mix (Takara Bio). For real-time PCR analysis, the mRNA expression was quantified with either TaqMan Primers and Probe or using SYBR Green on a StepOne Plus (Applied Biosystems, Foster City, CA, USA). β-ACTIN and GAPDH were used as internal controls. Target mRNA levels were expressed as fold-change against human adult small intestine (ASI; ASI=1). Primer details are listed in Supplemental Table S2.
Membrane integrities of human iPSCs derived intestine cells and Caco-2 cells cultured on CVM were measured after the medium change, using a Millicell ERS-2 (Epithelial Volt-Ohm Meter, Millipore).
Transcellular transport assays and measurement of CYP3A metabolite
In Figure 2 and Figure S1, for assessing the transporter activity of P-gp, time-dependent directional (B-to-

[2] = Permeability test (Papp) across hiPSC-derived enterocyte-like cell monolayer; format: in vitro ADME; settings: human, M3-2 medium, 37°C 2 h, n = 4
Experimental: The unlabeled compounds were analyzed by LC-MS/MS. […]
Permeability measurements
5 was determined as follows: the culture medium for hiPS-derived enterocyte-like cells was replaced with […]
started by replacing the FBS-containing HBSS buffer with substrate +/- inhibitor and incubated at 37°C for 2 h. The unlabeled compounds were analyzed by LC-MS/MS. The LC-MS/MS system consisted of a Waters ACQUITY UPLC (Waters Corporation, Milford, MA, USA) and a Waters Quattro Ultima mass spectrometer (Waters Corporation). The multiple reaction monitoring modes were used to monitor ions.
The detailed conditions for the analyses of the compounds are shown in Supplemental Table S1. The apparent membrane permeability coefficient (Papp) was calculated as follows. Papp ൌ ௗொௗ௧ ൈ ଵ஺஼బ Where dQ/dt is the amount of the compound permeated per unit of time, A is the surface area of insert membrane (0.33 cm2), and C0 is the initial compound concentration in the donor chamber. Differentiated cells showing TEER >30 Ω・cm2 were used. […]
100ൈቀ1െexp൫െα ൈP௔௣௣ ൯ቁ. Where α is the scaling factor. The fitting curve was calculated by nonlinear regression using Phoenix WinNonlin (Ver. 8.1, Certara, L.P.).

[3] = fraction of oral dose absorbed in humans; ref Amidon et al., 1988; Sjöberg et al., 2013; Skolnik et al., 2010; Sugano et al., 2002; Takenaka et al., 2016; Tavelin et al., 2003; Xiao et al., 2019; cited from earlier work
P-gp [4] = target: T1, P-gp (Homo sapiens, UniProt P08183); settings: digoxin 1.27 nM, absence of inhibitor
T1 sequence (P08183 whole entry): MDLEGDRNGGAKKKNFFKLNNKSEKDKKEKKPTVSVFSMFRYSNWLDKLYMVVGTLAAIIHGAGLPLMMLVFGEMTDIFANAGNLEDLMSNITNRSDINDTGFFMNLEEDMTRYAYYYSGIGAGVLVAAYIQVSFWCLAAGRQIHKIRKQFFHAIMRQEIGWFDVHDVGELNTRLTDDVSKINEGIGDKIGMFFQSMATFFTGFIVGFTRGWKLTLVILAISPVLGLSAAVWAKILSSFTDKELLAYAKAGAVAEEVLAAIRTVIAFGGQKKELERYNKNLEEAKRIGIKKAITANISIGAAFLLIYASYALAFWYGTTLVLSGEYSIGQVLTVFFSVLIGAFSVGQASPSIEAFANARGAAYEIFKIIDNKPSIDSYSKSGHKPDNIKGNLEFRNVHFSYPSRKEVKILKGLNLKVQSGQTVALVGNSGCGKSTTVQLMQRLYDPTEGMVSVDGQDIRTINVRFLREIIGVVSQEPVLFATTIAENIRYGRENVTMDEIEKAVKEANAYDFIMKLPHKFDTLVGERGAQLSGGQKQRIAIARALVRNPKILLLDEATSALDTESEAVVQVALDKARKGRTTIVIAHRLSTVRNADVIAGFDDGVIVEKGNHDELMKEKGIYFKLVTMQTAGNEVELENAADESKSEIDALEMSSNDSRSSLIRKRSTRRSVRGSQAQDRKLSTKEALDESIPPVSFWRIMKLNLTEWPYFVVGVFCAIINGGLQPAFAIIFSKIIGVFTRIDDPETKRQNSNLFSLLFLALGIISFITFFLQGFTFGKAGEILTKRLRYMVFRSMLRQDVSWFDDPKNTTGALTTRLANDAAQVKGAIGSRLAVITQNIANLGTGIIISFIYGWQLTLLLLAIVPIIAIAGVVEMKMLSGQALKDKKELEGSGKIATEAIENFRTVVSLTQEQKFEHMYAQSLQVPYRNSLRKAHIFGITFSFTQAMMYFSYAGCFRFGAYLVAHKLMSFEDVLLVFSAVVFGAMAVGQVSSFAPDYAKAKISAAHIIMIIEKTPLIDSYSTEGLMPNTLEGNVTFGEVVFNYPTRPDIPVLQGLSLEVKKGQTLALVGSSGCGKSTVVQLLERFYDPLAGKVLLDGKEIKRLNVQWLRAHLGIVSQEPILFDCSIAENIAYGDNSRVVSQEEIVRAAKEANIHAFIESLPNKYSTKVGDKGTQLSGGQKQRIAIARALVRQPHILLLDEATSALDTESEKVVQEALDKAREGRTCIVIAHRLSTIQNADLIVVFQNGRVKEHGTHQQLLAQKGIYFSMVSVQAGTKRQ

CYP3A4 = settings: in vitro; ref Andrew Williams et al., 2002; cited from earlier work
Caco-2 cells = tested on: Caco-2 cells; design: method as in Artursson, 1990; settings: ref Artursson, 1990; cited from earlier work
P-gp [5] = tested on: T2, P-gp; assay: Rhodamine 123 permeability assay by fluorescence detection; format: in vitro ADME, human; settings: human, not told, day 25, M3-2 with VD3 for the last 48 h (condition #8), read-out: rhodamine 123 flux ratio ([B-to-A transport]/[A-to-B transport])
T2 construct: transport activities of efflux transporters, P-gp and BCRP, in the ChiPS18-derived enterocyte-like cells; endogenous in cells; host or cells: ChiPS18 human iPSC-derived enterocyte-like cells on CVM inserts
Excerpt: (§1) Flux ratio = Papp, basolateral to apical/Papp, apical to basolateral

P-gp [6] = target: T1, P-gp; assay: as above; format: in vitro ADME; design: transport activities of efflux transporters, P-gp and BCRP, in the ChiPS18-derived enterocyte-like cells; endogenous in cells; host or cells: ChiPS18 human iPSC-derived enterocyte-like cells on CVM inserts; settings: 10 μM, day 25, absence of Dex (condition #6, 7) or without Dex and DMSO (condition #5)
Excerpt: as §1

[7] = D30 of differentiation, read-out: RPChiPS771 d30 Papp Mean ± SD
[8] = day 23 of differentiation, read-out: RPChiPS771 d23 Papp Mean ± SD

Row | SMILES | Papp at 2 h [2, 7] | Papp at 2 h [2, 8] | Human Fa [3] | also measured
1 | C=C1/C(=C\C=C2/CCC[C@]3(C)[C@@H]([C@H](C)CCCC(C)(C)O)CC[C@@H]23)C[C@@H](O)C[C@@H]1O [VD3, 1α,25-dihydroxyvitamin D3] |  |  |  | expression level of ALPI ([1]; presence of VD3, M3-2): upregulated; expression levels of UGT1A1, CYP2B6, CYP3A4 and CYP3A7 ([1]; presence of VD3 compared with controls without VD3, M3-2): increased; expression levels of SLC15A1, ABCB1 and ABCG2 ([1]; presence of VD3 vs without, M3-2): not affected
2 | Nc1nc2c(ncn2COCCO)c(=O)[nH]1 [acyclovir] | 10 ± 6.34 ×10⁻⁶ cm/s | 3.62 ± 0.73 ×10⁻⁶ cm/s |  | 
3 | Cc1cc(=O)n(-c2ccccc2)n1C [antipyrine] | 41.9 ± 2.2 ×10⁻⁶ cm/s | 48.4 ± 1.7 ×10⁻⁶ cm/s | 97% | 
4 | O=C(O)Cc1ccccc1Nc1c(Cl)cccc1Cl [diclofenac] | 12 ± 1.2 ×10⁻⁶ cm/s | 17.4 ± 0.6 ×10⁻⁶ cm/s |  | 
5 | C[C@H]1O[C@@H](O[C@H]2[C@@H](O)C[C@H](O[C@H]3[C@@H](O)C[C@H](O[C@H]4CC[C@@]5(C)[C@H](CC[C@@H]6[C@@H]5C[C@@H](O)[C@]5(C)[C@@H](C7=CC(=O)OC7)CC[C@]65O)C4)O[C@@H]3C)O[C@@H]2C)C[C@H](O)[C@@H]1O [digoxin] | 5.18 ± 0.7 ×10⁻⁶ cm/s | 6.15 ± 0.94 ×10⁻⁶ cm/s |  | directional transport (B-to-A vs A-to-B) (P-gp [4]): Basal-to-apical (B-to-A) transport exceeded apical-to-basal (A-to-B) transport
6 | NC(N)=Nc1nc(CSCCC(N)=NS(N)(=O)=O)cs1 [famotidine] | 7.42 ± 3.36 ×10⁻⁶ cm/s | 5.05 ± 1.76 ×10⁻⁶ cm/s | 38% | 
7 | NS(=O)(=O)c1cc2c(cc1Cl)NCNS2(=O)=O [hydrochlorothiazide] | 9.5 ± 4.92 ×10⁻⁶ cm/s | 2.1 ± 1.12 ×10⁻⁶ cm/s |  | 
8 | COCCc1ccc(OCC(O)CNC(C)C)cc1 (centres unmarked) [metoprolol] | 25.1 ± 4.8 ×10⁻⁶ cm/s | 22.6 ± 1.3 ×10⁻⁶ cm/s |  | 
9 | Cc1ncc2n1-c1ccc(Cl)cc1C(c1ccccc1F)=NC2 [midazolam] |  |  |  | formation of 1′-OH midazolam by CYP3A4 compared to CYP3A7 (CYP3A4): > 600 fold
10 | CC(C)(C)NCC(O)COc1cccc2c1CC(O)C(O)C2 (centres unmarked) [nadolol] | 8.96 ± 9.29 ×10⁻⁶ cm/s | 2.83 ± 1.5 ×10⁻⁶ cm/s | 33% | 
11 | CC(C)NCC(O)COc1cccc2ccccc12 (centres unmarked) [propranolol] | 29.3 ± 2.5 ×10⁻⁶ cm/s | 26 ± 2.7 ×10⁻⁶ cm/s |  | passive permeability (Caco-2 cells): 41.9 ×10⁻⁶ cm/s
12 | CNC(=C[N+](=O)[O-])NCCSCc1ccc(CN(C)C)o1 [ranitidine] | 8.3 ± 6.06 ×10⁻⁶ cm/s | 3.94 ± 0.7 ×10⁻⁶ cm/s | 50% | 
13 | COC(=O)c1ccccc1-c1c2ccc(=N)cc-2oc2cc(N)ccc12 [rhodamine 123] |  |  |  | efflux ratio at 10 μM (P-gp [5]): < 2; rhodamine 123 flux ratio ([B-to-A transport]/[A-to-B transport]) (P-gp [6]): low
14 | O=C(O)c1cc(/N=N/c2ccc(S(=O)(=O)Nc3ccccn3)cc2)ccc1O [sulfasalazine] | 2.65 ± 1.01 ×10⁻⁶ cm/s | 1.02 ± 0.4 ×10⁻⁶ cm/s | 13% | 
15 | CCN1CCCC1CNC(=O)c1cc(S(N)(=O)=O)ccc1OC (centres unmarked) [sulpiride] | 8.39 ± 4.96 ×10⁻⁶ cm/s | 3.15 ± 1.18 ×10⁻⁶ cm/s |  | 
16 | C[C@]12CC[C@H]3[C@@H](CCC4=CC(=O)CC[C@@]43C)[C@@H]1CC[C@@H]2O [testosterone] |  |  | 100% | 
